Series [1] deals with T1, Histone-lysine N-methyltransferase EHMT2 (Homo sapiens, UniProt Q96KQ7).
T1 sequence (Q96KQ7 whole entry): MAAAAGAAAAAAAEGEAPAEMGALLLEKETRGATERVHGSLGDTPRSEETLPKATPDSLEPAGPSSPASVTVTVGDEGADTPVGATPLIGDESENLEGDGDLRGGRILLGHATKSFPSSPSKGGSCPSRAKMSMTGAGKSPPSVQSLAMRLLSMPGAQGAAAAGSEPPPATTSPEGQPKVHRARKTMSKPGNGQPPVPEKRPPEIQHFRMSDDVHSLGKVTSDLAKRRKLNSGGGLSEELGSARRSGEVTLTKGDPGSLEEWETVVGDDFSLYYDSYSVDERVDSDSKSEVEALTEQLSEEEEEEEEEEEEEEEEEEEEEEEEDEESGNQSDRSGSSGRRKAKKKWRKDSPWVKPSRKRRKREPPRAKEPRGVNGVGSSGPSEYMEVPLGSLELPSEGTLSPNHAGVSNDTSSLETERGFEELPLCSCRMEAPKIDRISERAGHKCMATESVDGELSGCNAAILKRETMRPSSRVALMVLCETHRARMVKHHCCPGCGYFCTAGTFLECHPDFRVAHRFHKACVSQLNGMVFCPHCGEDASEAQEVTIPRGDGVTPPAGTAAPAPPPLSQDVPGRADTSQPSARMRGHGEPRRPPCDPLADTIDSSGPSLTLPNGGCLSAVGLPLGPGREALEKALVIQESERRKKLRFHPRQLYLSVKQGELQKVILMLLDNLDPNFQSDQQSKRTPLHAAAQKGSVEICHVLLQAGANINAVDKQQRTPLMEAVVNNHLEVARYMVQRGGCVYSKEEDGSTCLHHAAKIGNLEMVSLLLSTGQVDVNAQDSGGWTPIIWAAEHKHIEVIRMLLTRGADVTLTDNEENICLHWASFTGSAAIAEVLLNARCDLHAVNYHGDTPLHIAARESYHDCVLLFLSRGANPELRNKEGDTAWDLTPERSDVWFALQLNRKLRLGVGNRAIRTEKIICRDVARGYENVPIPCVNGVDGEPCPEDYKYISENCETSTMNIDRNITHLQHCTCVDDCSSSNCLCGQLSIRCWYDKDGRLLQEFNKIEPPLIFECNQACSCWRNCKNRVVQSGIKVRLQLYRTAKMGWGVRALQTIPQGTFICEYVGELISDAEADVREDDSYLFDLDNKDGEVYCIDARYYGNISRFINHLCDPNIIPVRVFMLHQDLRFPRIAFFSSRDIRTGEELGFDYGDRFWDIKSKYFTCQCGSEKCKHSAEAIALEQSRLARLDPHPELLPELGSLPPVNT
The series is described as follows: Inhibition of recombinant human G9a using biotinylated-Histone H3 peptide (1 to 21 residues) after 30 mins in presence of SAM by AlphaLISA assay.

A short description of series [2]: Apparent permeability of the compound after 24 hrs by PAMPA. The format is ADME. For orientation: The PAMPA barrier holds no transporters, so it reflects passive diffusion.
A short description of series [3]: Metabolic stability in human liver microsomes assessed as parent compound turn over percentage at 1 mM preincubated for 5 mins followed by NADPH addition and measured for 60 mins by UHPLC analysis. The format is ADME, Microsome. To be noted: read-out: Drug metabolism. On the technique in general: Liver microsomes are vesicles of endoplasmic reticulum, rich in cytochrome P450 enzymes.

Series [4] in a line: Apparent permeability of the compound after 24 hrs by BBB-PAMPA. In kind it is ADME.
For series [5], the target named is T1, Histone-lysine N-methyltransferase EHMT2. The series is described as follows: Inhibition G9a (unknown origin).

One may read the IC50 as the concentration that inhibits the measured activity by half. Consider `COc1cc2c(cc1OCCCN1CCCC1)NC(C1CCCCC1)CN=C2NC1CCN(C(C)C)CC1` (stereo not drawn), for which the IC50 in series [1] is 955 nM.
As for `COc1cc2c(cc1OCCCN1CCCC1)N=C(C1CCCCC1)CC(NC1CCN(C(C)C)CC1)=N2`, the IC50 in series [1] stood at 2980 nM.
Same read-out and setting: then `COc1cc2c(cc1OCCCN1CCCC1)NC(c1ccccc1)CN=C2NC1CCN(C(C)C)CC1` (stereo not drawn), with 2090 nM.
As for `COc1cc2c(NC3CCN(C(C)C)CC3)nc(C3CCCCC3)nc2cc1OCCCN1CCCC1`, the Papp in series [2] was 0.49 ×10⁻⁷ cm/s; in series [4] it was 0.19 ×10⁻⁷ cm/s. Besides, the metabolised at 1 h in series [3] came out at 2.93%.
Take `COc1cc2c(NC3CCN(CCCCCN)CC3)nc(NCCCN(C)C)nc2cc1OCCCCCN`: in series [5], the IC50 was found to be 160 nM.
Regarding `COc1cc2c(cc1OCCCN1CCCC1)N=C(c1ccccc1)CN=C2NC1CCN(C(C)C)CC1`, the IC50 in series [1] was found to be 1090 nM.

Source of the values: ChEMBL document CHEMBL4400539, “Discovery of a Novel Chemotype of Histone Lysine Methyltransferase EHMT1/2 (GLP/G9a) Inhibitors: Rational Design, Synthesis, Biological Evaluation, and Co-crystal Structure” (J Med Chem, 2019).
